Results published in ChEMBL document CHEMBL2311297 (Bioorg Med Chem Lett, 2013).
Active and inactive are the calls of the source. No cut-off for these calls is given here.

Legend:
[1] = biological target: Myc proto-oncogene protein (Homo sapiens, UniProt P01106); assay: Inhibition of recombinant His6-tagged c-Myc bHLH-ZIP domain (353 to 437 amino acid residues) (unknown origin) assessed as disruption of Myc-Max dimerization at 100 uM by electrophoretic mobility shift assay relative to control
Daudi = assay: Cytotoxicity against human Daudi cells assessed as growth inhibition after 3 to 5 days by MTT assay
HL-60 = assay: Cytotoxicity against human HL60 cells assessed as growth inhibition after 3 to 5 days by MTT assay
[2] = Binding affinity to 5'-HEX-tagged double standard 22 bp 5'-hexachlorofluoresceine-CACCCGGTCACGTGGCCTACAC-3' (unknown origin) by PAGE analysis
Protein max = Protein max (Homo sapiens, UniProt P61244); assay: Inhibition of His6-tagged Max (151 amino acid residues) (unknown origin) assessed as disruption of Max-Max dimerization by electrophoretic mobility shift assay
Sequence of Protein max (P61244 whole entry): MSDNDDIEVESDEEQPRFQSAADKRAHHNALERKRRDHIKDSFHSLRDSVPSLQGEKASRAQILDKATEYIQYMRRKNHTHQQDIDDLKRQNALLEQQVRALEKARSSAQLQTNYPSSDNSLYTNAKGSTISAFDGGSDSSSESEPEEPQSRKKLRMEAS

Sequence of Myc proto-oncogene protein (P01106 whole entry, the tested form may be a part): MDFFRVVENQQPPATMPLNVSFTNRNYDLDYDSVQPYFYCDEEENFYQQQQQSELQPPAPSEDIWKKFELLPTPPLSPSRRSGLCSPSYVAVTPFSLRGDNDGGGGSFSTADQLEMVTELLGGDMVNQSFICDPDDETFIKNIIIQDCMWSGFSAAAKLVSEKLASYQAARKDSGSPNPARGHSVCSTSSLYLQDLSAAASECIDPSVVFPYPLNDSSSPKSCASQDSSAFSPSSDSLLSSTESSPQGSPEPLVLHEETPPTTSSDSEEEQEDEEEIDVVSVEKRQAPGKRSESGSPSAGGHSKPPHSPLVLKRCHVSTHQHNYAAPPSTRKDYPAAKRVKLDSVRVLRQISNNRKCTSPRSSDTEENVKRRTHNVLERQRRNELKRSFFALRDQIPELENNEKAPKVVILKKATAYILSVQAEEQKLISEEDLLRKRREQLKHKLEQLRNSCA

inhibition [1] [%] | SMILES | also measured
17 | O=C(O)CCC(=O)Nc1ccc(Nc2ccccc2-c2ccccc2)c2nonc12 | –
2 | CC(=O)Nc1ccc(Nc2ccccc2-c2ccccc2)c2nonc12 | –
2 | O=[N+]([O-])c1ccc(Nc2ccccc2)c2nonc12 | –
20 | O=[N+]([O-])c1ccc(Nc2cccc(-c3ccccc3)c2)c2nonc12 | –
11 | Cc1ccccc1Nc1ccc([N+](=O)[O-])c2nonc12 | –
0 | O=[N+]([O-])c1ccc(Nc2ccccc2-c2ccccc2)cc1 | –
0 | O=C(O)c1cccc(Nc2ccc([N+](=O)[O-])c3nonc23)c1 | –
0 | COC(=O)Nc1ccc(Nc2ccccc2-c2ccccc2)c2nonc12 | –
0 | Cc1ccc(Nc2ccc([N+](=O)[O-])c3nonc23)cc1 | –
8 | O=C(O)c1ccccc1Nc1ccc([N+](=O)[O-])c2nonc12 | –
28 | O=[N+]([O-])c1ccc(Nc2ccc(-c3ccccc3)cc2)c2nonc12 | –
0 | COc1ccccc1Nc1ccc([N+](=O)[O-])c2nonc12 | –
36 | O=[N+]([O-])c1ccc(Oc2ccccc2-c2ccccc2)c2nonc12 | –
25 | O=C(Nc1ccc(Nc2ccccc2-c2ccccc2)c2nonc12)C(F)(F)F | –
13 | O=[N+]([O-])c1ccc(Nc2ccccc2O)c2nonc12 | –
33 | O=C(O)COCC(=O)Nc1ccc(Nc2ccccc2-c2ccccc2)c2nonc12 | –

SMILES | inhibition [1] [%] | also measured
O=[N+]([O-])c1ccc(Nc2ccccc2-c2ccccc2)c2nonc12 | 38 | IC50 (Daudi): 10 µM; IC50 (HL-60): 30 µM
O=[N+]([O-])c1ccc(Nc2ccccc2Br)c2nonc12 | 39 | –
O=[N+]([O-])c1ccc(N2CCCCC2)c2nonc12 | 10 | –
O=[N+]([O-])c1ccc(NC2CCCCC2)c2nonc12 | 11 | –
O=[N+]([O-])c1ccc(NCc2ccccc2)c2nonc12 | 0 | –
O=C(O)c1ccc(Nc2ccc([N+](=O)[O-])c3nonc23)cc1 | 93 | Activity [2]: inactive; IC50 (Protein max): > 100 µM; IC50 (Daudi): 56 µM; IC50 (HL-60): 184 µM
